Values after ≈ are worked out from the molar mass of the structure shown.
Columns and labels:
Enterococcus sp. = assay: In vitro antibacterial evaluation: minimum inhibitory concentration (MIC), broth dilution method; assay type: cell-based; conditions: broth dilution, 5×10^5 CFU/mL, 18 hours at 35° C.
Procedure, shortened: (§1)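 MIC by broth dilution in Mueller-Hinton II medium following NCCLS M7-A2. Inoculum was 5×10^5 CFU/mL and antibiotic was tested over 64-0.06 μg/mL. Gram-positive panel included clinical isolates resistant to methicillin, penicillin and/or vancomycin.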

Escherichia coli = assay: as above; assay type: cell-based; conditions: 5×10^5 CFU/mL, 18 hours at 35° C.
Procedure, shortened: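 MIC read as lowest drug level preventing visible growth. Organisms at 5×10^5 CFU/mL were exposed to a 64-0.06 μg/mL dilution series in Muller-Hinton II […] following NCCLS broth dilution standard M7-A2.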

Staphylococcus sp. = assay: as above; assay type: cell-based; conditions: for MIC Staphylococcus aureus (ATCC 29213): strain ATCC 29213; for MIC Staphylococcus aureus (GC 1131): strain GC 1131; for MIC Staphylococcus aureus (GC 4541): strain GC 4541; for MIC Staphylococcus aureus (GC 4542): strain GC 4542; for MIC Staphylococcus aureus-SMITH (GC 4543): strain GC 4543; for MIC Staphylococcus aureus (GC 4544): strain GC 4544; for MIC Staphylococcus aureus (GC 4545): strain GC 4545; for MIC Staphylococcus haemolyticus (GC 4546): strain GC 4546; for MIC Coagulase Negative Staphylococcus (GC 4547): strain GC 4547; for MIC Coagulase Negative Staphylococcus (GC 4548): strain GC 4548; for MIC Coagulase Negative Staphylococcus (GC 4549): strain GC 4549; for MIC Coagulase Negative Staphylococcus (GC 4551): strain GC 4551; for MIC Coagulase Negative Staphylococcus (ID-3941): strain ID-3941
Procedure, shortened: as §1

Streptococcus sp. = assay: as above; assay type: cell-based; conditions: broth dilution, 5×10^5 CFU/mL, 18 hours at 35° C.
Procedure, shortened: as §1

[1] = system: Enterococcus faecalis (GC 6189), vancomycin resistant strain; assay: Acute lethal infection in mice (ED50); assay type: in vivo; conditions: female CD-1 mice, intraperitoneal challenge, intravenous dose 30 min. after infection, 7 day survival ratios
Procedure, shortened: (§2)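 Lethal systemic infection model: female CD-1 mice, 20 ± 1-2 g, intraperitoneal challenge. Single intravenous treatment 30 min after infection; 7-day survival, pooled from 3 tests, gives ED50.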

[2] = system: Staphylococcus aureus-SMITH (GC 4543); assay: Acute lethal infection in mice (ED50); assay type: in vivo; conditions: female CD-1 mice, intraperitoneal challenge, intravenous dose 30 min. after infection, 7 day survival ratios
Procedure, shortened: as §2

[3] = system: Streptococcus pneumoniae (GC 1894), penicillin resistant strain; assay: Acute lethal infection in mice (ED50); assay type: in vivo; conditions: female CD-1 mice, intraperitoneal challenge, intravenous dose 30 min. after infection, 7 day survival ratios
Procedure, shortened: as §2

[4] = broth dilution, 18 hours at 35° C.

Compound: CCCC(C)C1OCC2OC(OC3C(CO)OC(Oc4ccc(CC5NC(=O)C(C(C)c6ccccc6)NC(=O)CNC(=O)C(CO)NC(=O)C(C(O)C6CNC(=N)N6C6OC(CO)C(O)C(O)C6O)NC(=O)C(C(O)C6CNC(=N)N6)NC5=O)cc4)C(O)C3O)C(O)C(O)C2O1 (stereo not drawn) [Example 111]
- MIC Enterococccus avium (GC 4558) (Enterococcus sp.): 2 µg/mL (≈ 1.45 µM)
- MIC Enterococccus faecalis (ATCC 29212) (Enterococcus sp.): 2 µg/mL (≈ 1.45 µM)
- MIC Enterococccus faecalis (GC 4552) (Enterococcus sp.): 2 µg/mL (≈ 1.45 µM)
- MIC Enterococccus faecalis (GC 4553) (Enterococcus sp.): 2 µg/mL (≈ 1.45 µM)
- MIC Enterococccus faecalis (GC 4554) (Enterococcus sp.): 2 µg/mL (≈ 1.45 µM)
- MIC Enterococccus faecium (GC 2243) (Enterococcus sp.): 1 µg/mL (≈ 0.726 µM)
- MIC Enterococccus faecium (GC 4556) (Enterococcus sp.): 2 µg/mL (≈ 1.45 µM)
- MIC Enterococccus faecium (GC 4557) (Enterococcus sp.): 0.5 µg/mL (≈ 0.363 µM)
- MIC Enterococcus faecalis (GC 2242) (Enterococcus sp.): 1 µg/mL (≈ 0.726 µM)
- MIC Escherichia coli (ATCC 25922) (Escherichia coli): 32 µg/mL (≈ 23.2 µM)
- MIC Staphylococcus aureus (ATCC 29213) (Staphylococcus sp.): 1 µg/mL (≈ 0.726 µM)
- MIC Staphylococcus aureus (ATCC 29213) (Staphylococcus sp.; [4]): 1 µg/mL (≈ 0.726 µM)
- MIC Staphylococcus aureus (GC 1131) (Staphylococcus sp.): 1 µg/mL (≈ 0.726 µM)
- MIC Staphylococcus aureus (GC 1131) (Staphylococcus sp.; [4]): 1 µg/mL (≈ 0.726 µM)
- MIC Staphylococcus aureus (GC 4541) (Staphylococcus sp.): 1 µg/mL (≈ 0.726 µM)
- MIC Staphylococcus aureus (GC 4541) (Staphylococcus sp.; [4]): 1 µg/mL (≈ 0.726 µM)
- MIC Staphylococcus aureus (GC 4542) (Staphylococcus sp.): 1 µg/mL (≈ 0.726 µM)
- MIC Staphylococcus aureus (GC 4542) (Staphylococcus sp.; [4]): 1 µg/mL (≈ 0.726 µM)
- MIC Staphylococcus aureus-SMITH (GC 4543) (Staphylococcus sp.; 18 hours at 35° C.): 1 µg/mL (≈ 0.726 µM)
- MIC Staphylococcus aureus-SMITH (GC 4543) (Staphylococcus sp.; [4]): 1 µg/mL (≈ 0.726 µM)
- MIC Staphylococcus aureus (GC 4544) (Staphylococcus sp.): 1 µg/mL (≈ 0.726 µM)
- MIC Staphylococcus aureus (GC 4544) (Staphylococcus sp.; [4]): 1 µg/mL (≈ 0.726 µM)
- MIC Staphylococcus aureus (GC 4545) (Staphylococcus sp.): 1 µg/mL (≈ 0.726 µM)
- MIC Staphylococcus aureus (GC 4545) (Staphylococcus sp.; [4]): 1 µg/mL (≈ 0.726 µM)
- MIC Staphylococcus haemolyticus (GC 4546) (Staphylococcus sp.): 1 µg/mL (≈ 0.726 µM)
- MIC Staphylococcus haemolyticus (GC 4546) (Staphylococcus sp.; [4]): 1 µg/mL (≈ 0.726 µM)
- MIC Coagulase Negative Staphylococcus (GC 4547) (Staphylococcus sp.): 0.5 µg/mL (≈ 0.363 µM)
- MIC Coagulase Negative Staphylococcus (GC 4547) (Staphylococcus sp.; [4]): 0.5 µg/mL (≈ 0.363 µM)
- MIC Coagulase Negative Staphylococcus (GC 4548) (Staphylococcus sp.): 1 µg/mL (≈ 0.726 µM)
- MIC Coagulase Negative Staphylococcus (GC 4548) (Staphylococcus sp.; [4]): 1 µg/mL (≈ 0.726 µM)
- MIC Coagulase Negative Staphylococcus (GC 4549) (Staphylococcus sp.): 0.5 µg/mL (≈ 0.363 µM)
- MIC Coagulase Negative Staphylococcus (GC 4549) (Staphylococcus sp.; [4]): 0.5 µg/mL (≈ 0.363 µM)
- MIC Coagulase Negative Staphylococcus (GC 4551) (Staphylococcus sp.): 1 µg/mL (≈ 0.726 µM)
- MIC Coagulase Negative Staphylococcus (GC 4551) (Staphylococcus sp.; [4]): 1 µg/mL (≈ 0.726 µM)
- MIC Coagulase Negative Staphylococcus (ID-3941) (Staphylococcus sp.): 1 µg/mL (≈ 0.726 µM)
- MIC Coagulase Negative Staphylococcus (ID-3941) (Staphylococcus sp.; [4]): 1 µg/mL (≈ 0.726 µM)
- MIC Streptococcus agalactiae (GC 4564) (Streptococcus sp.): 1 µg/mL (≈ 0.726 µM)
- MIC Streptococcus pneumoniae (GC 4565) (Streptococcus sp.): 0.5 µg/mL (≈ 0.363 µM)
- MIC Streptococcus pyogenes (ID-3187) (Streptococcus sp.): 0.5 µg/mL (≈ 0.363 µM)
- median effective dose (ED50), Enterococcus faecalis (GC 6189) [1]: 0.28 mg/kg
- median effective dose (ED50), Staphylococcus aureus-SMITH (GC 4543) [2]: 0.14 mg/kg
- median effective dose (ED50), Streptococcus pneumoniae (GC 1894) [3]: 0.03 mg/kg

Source: patent US8247211B2, “Glycopeptide antibiotics” (American Cyanamid Company, priority 2001, dated 2012)
